Measured values from ChEMBL document CHEMBL4359931, “Synthesis, biological evaluation and molecular docking studies of new amides of 4-bromothiocolchicine as anticancer agents” (Bioorg Med Chem, 2019).
The source made the active and inactive calls. No cut-off for these calls is given here.

Legend:
[1] = Cell cycle arrest in human ALL5 cells assessed as accumulation in G1 phase at 5 times of antiproliferative IC50 incubated for 72 hrs by propidium iodide based flow cytometry (reference value: 59.7 %); assay type: functional
[2] = Cell cycle arrest in human ALL5 cells assessed as accumulation in subG1 phase at 5 times of antiproliferative IC50 incubated for 72 hrs by propidium iodide based flow cytometry (reference value: 15.5 %); assay type: functional
MCF7 [3] = test: Cell cycle arrest in human MCF7 cells assessed as accumulation in subG1 phase at 5 times of antiproliferative IC50 incubated for 72 hrs by propidium iodide based flow cytometry (reference value: 3.59 %); assay type: functional
[4] = Cell cycle arrest in human ALL5 cells assessed as accumulation in G2 phase at 5 times of antiproliferative IC50 incubated for 48 hrs by propidium iodide based flow cytometry (reference value: 11.2 %); assay type: functional
Homo sapiens [5] = species on record: Homo sapiens; test: Induction of apoptosis in human ALL5 cells assessed as reduction in 116 kDa PARP expression at 0.2 uM incubated for 24 and 48 hrs by immunoblot analysis; assay type: functional, cell-based
[6] = Cell cycle arrest in human ALL5 cells assessed as accumulation in S phase at 5 times of antiproliferative IC50 incubated for 24 hrs by propidium iodide based flow cytometry (reference value: […]); assay type: functional
[7] = Cell cycle arrest in human ALL5 cells assessed as accumulation in G2 phase at 5 times of antiproliferative IC50 incubated for 72 hrs by propidium iodide based flow cytometry (reference value: 11.3 %); assay type: functional
[8] = Antiproliferative activity against human ALL5 cells assessed as reduction in cell viability incubated for 120 hrs by MTT assay; assay type: functional, cell-based; settings: ALL5, 120 h
Homo sapiens [9] = species on record: Homo sapiens; test: Induction of apoptosis in human ALL5 cells assessed as increase in 85 kDa PARP expression at 0.2 uM incubated for 24 and 48 hrs by immunoblot analysis; assay type: functional, cell-based
A549 = test: Antiproliferative activity against human A549 cells assessed as reduction in cell viability incubated for 120 hrs by MTT assay; assay type: functional, cell-based; settings: A549, 120 h
MCF7 [10] = test: Cell cycle arrest in human MCF7 cells assessed as accumulation in G1 phase at 5 times of antiproliferative IC50 incubated for 24 hrs by propidium iodide based flow cytometry (reference value: 49.9 %); assay type: functional
MCF7 [11] = test: Cell cycle arrest in human MCF7 cells assessed as accumulation in subG1 phase at 5 times of antiproliferative IC50 incubated for 48 hrs by propidium iodide based flow cytometry (reference value: 9.19 %); assay type: functional
[12] = Cell cycle arrest in human ALL5 cells assessed as accumulation in subG1 phase at 5 times of antiproliferative IC50 incubated for 24 hrs by propidium iodide based flow cytometry (reference value: 10.5 %); assay type: functional
BALB/3T3 = test: Antiproliferative activity against mouse BALB/3T3 cells assessed as reduction in cell viability incubated for 120 hrs by MTT assay; assay type: cell-based; settings: BALB/3T3, 120 h
MCF7 [13] = test: Cell cycle arrest in human MCF7 cells assessed as accumulation in G2 phase at 5 times of antiproliferative IC50 incubated for 24 hrs by propidium iodide based flow cytometry (reference value: 22.4 %); assay type: functional
[14] = Cell cycle arrest in human ALL5 cells assessed as accumulation in G1 phase at 5 times of antiproliferative IC50 incubated for 24 hrs by propidium iodide based flow cytometry (reference value: 68.1 %); assay type: functional
MCF7 [15] = test: Cell cycle arrest in human MCF7 cells assessed as accumulation in G2 phase at 5 times of antiproliferative IC50 incubated for 72 hrs by propidium iodide based flow cytometry (reference value: 18.6 %); assay type: functional
MCF7 [16] = test: Cell cycle arrest in human MCF7 cells assessed as accumulation in G1 phase at 5 times of antiproliferative IC50 incubated for 48 hrs by propidium iodide based flow cytometry (reference value: 40.8 %); assay type: functional
[17] = Cell cycle arrest in human ALL5 cells assessed as accumulation in S phase at 5 times of antiproliferative IC50 incubated for 48 hrs by propidium iodide based flow cytometry (reference value: 10.3 %); assay type: functional
MCF7 [18] = test: Cell cycle arrest in human MCF7 cells assessed as accumulation in G1 phase at 5 times of antiproliferative IC50 incubated for 72 hrs by propidium iodide based flow cytometry (reference value: 58 %); assay type: functional
[19] = Cell cycle arrest in human ALL5 cells assessed as accumulation in subG1 phase at 5 times of antiproliferative IC50 incubated for 48 hrs by propidium iodide based flow cytometry (reference value: 11 %); assay type: functional
MCF7 [20] = test: Cell cycle arrest in human MCF7 cells assessed as accumulation in subG1 phase at 5 times of antiproliferative IC50 incubated for 24 hrs by propidium iodide based flow cytometry (reference value: 7.79 %); assay type: functional
MCF7 [21] = test: Cell cycle arrest in human MCF7 cells assessed as accumulation in G2 phase at 5 times of antiproliferative IC50 incubated for 48 hrs by propidium iodide based flow cytometry (reference value: 16 %); assay type: functional
MCF7 [22] = test: Cell cycle arrest in human MCF7 cells assessed as accumulation in S phase at 5 times of antiproliferative IC50 incubated for 48 hrs by propidium iodide based flow cytometry (reference value: 34 %); assay type: functional
[23] = Cell cycle arrest in human ALL5 cells assessed as accumulation in G2 phase at 5 times of antiproliferative IC50 incubated for 24 hrs by propidium iodide based flow cytometry (reference value: 10.6 %); assay type: functional
[24] = Cell cycle arrest in human ALL5 cells assessed as accumulation in S phase at 5 times of antiproliferative IC50 incubated for 72 hrs by propidium iodide based flow cytometry (reference value: 13.5 %); assay type: functional
MCF7 [25] = test: Cell cycle arrest in human MCF7 cells assessed as accumulation in S phase at 5 times of antiproliferative IC50 incubated for 72 hrs by propidium iodide based flow cytometry (reference value: 19.8 %); assay type: functional
MCF7 [26] = test: Cell cycle arrest in human MCF7 cells assessed as accumulation in S phase at 5 times of antiproliferative IC50 incubated for 24 hrs by propidium iodide based flow cytometry (reference value: 19.9 %); assay type: functional
[27] = Cell cycle arrest in human ALL5 cells assessed as accumulation in G1 phase at 5 times of antiproliferative IC50 incubated for 48 hrs by propidium iodide based flow cytometry (reference value: 67.4 %); assay type: functional
Homo sapiens [28] = species on record: Homo sapiens; test: Induction of cell death in human ALL5 cells assessed as decrease in 4 N DNA at 5 times of antiproliferative IC50 incubated for 72 hrs by propidium iodide based flow cytometry; assay type: functional
Homo sapiens [29] = species on record: Homo sapiens; test: Induction of cell cycle arrest in human ALL5 cells assessed as increase in 4 N DNA at 5 times of antiproliferative IC50 incubated for 48 hrs by propidium iodide based flow cytometry; assay type: functional
Homo sapiens [30] = species on record: Homo sapiens; test: Induction of apoptosis in human ALL5 cells assessed as increase in 85 kDa PARP expression at 43 uM incubated for 48 hrs by immunoblot analysis; assay type: functional, cell-based
Homo sapiens [31] = species on record: Homo sapiens; test: Induction of cell cycle arrest in human ALL5 cells assessed as increase in 4 N DNA at 5 times of antiproliferative IC50 incubated for 24 hrs by propidium iodide based flow cytometry; assay type: functional
Homo sapiens [32] = species on record: Homo sapiens; test: Induction of apoptosis in human ALL5 cells assessed as reduction in 116 kDa PARP expression at 43 uM incubated for 24 and 48 hrs by immunoblot analysis; assay type: functional, cell-based

Structure (SMILES)	Activity [1] [%]	Activity [2] [%]	Activity (MCF7 [3]) [%]	Activity [4] [%]	Activity [6] [%]	Activity [7] [%]	IC50 [8] [nM]	Activity (MCF7 [10]) [%]	Activity (MCF7 [11]) [%]	Activity [12] [%]	Activity (MCF7 [13]) [%]	Activity [14] [%]	Activity (MCF7 [15]) [%]	Activity (MCF7 [16]) [%]	Activity [17] [%]	Activity (MCF7 [18]) [%]	Activity [19] [%]	Activity (MCF7 [20]) [%]	Activity (MCF7 [21]) [%]	Activity (MCF7 [22]) [%]	also measured
COc1cccc2c1C(=O)c1c(O)c3c(c(O)c1C2=O)C[C@@](O)(C(=O)CO)C[C@@H]3O[C@H]1C[C@H](N)[C@H](O)[C@H](C)O1 [DOXORUBICIN]	36.5	36.6	18.3	5.52	7.16	9.99	39.1	47.3	6.08	1.55	30.5	66.3	32.5	43.3	2.77	35.1	21	5.28	32.4	18.3	Activity (Homo sapiens [5]): Active; Activity (Homo sapiens [9]): Active; IC50 (A549): 258 nM; IC50 (BALB/3T3): 166 nM; Activity [23]: 22%; Activity [24]: 16.9%; Activity (MCF7 [25]): 14.1%; Activity (MCF7 [26]): 16.9%; Activity [27]: 67.6%
COc1cc2c(c(OC)c1OC)-c1ccc(OC)c(=O)cc1[C@@H](NC(C)=O)CC2 [COLCHICINE]	21.7	52.1	12.6	22.3	12	9.05	8.6	9.33	9.33	19.7	72.2	54	64	14.5	17.1	16	27.4	5.51	68.3	7.86	Activity (Homo sapiens [28]): Active; Activity (Homo sapiens [29]): Active; Activity (Homo sapiens [30]): Active; Activity (Homo sapiens [31]): Active; Activity (Homo sapiens [32]): Active; Activity [23]: 14.4%; Activity [24]: 17.1%; Activity (MCF7 [25]): 7.4%; Activity (MCF7 [26]): 13%; Activity [27]: 33.2%
